Experimental findings from PubChem BioAssay AID1919006 (Molecular Pharmacology Branch, DTP, NCI, 2023) are described below.

SMILES strings stand for the structures. Where “and” joins values, the source holds several entries; their conditions need not be identical. Equal values may be shown once.

The assay relates to 885512-296-R-J2-PDC complex spheroid growth, % test/control. Nature of the assay: Anticancer human tumor 885512-296-R-J2-PDC patient-derived breast carcinoma cell line growth inhibition [AhR]. The conditions noted are these: for viability, T/C: stronger effect = lower value. A digest of the protocol: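 Complex tumor spheroids co-cultured with HUVEC and human MSC stroma; AhR antagonists tested in combination with standard-of-care and investigational agents. Top concentration at or near clinical Cmax (else 10 microM), half-log dilutions; growth expressed as percent test/control.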

The mark [1] stands for this setting: curve of first compound, second compound 0.1 µM.
Setting [2] is: curve of first compound, second compound 0.316 µM.
Where [3] appears, read: curve of first compound, second compound 1 µM.
The mark [4] stands for this setting: curve of first compound, second compound 3.16 µM.
Where [5] appears, read: curve of first compound, second compound 10 µM.
The mark [6] stands for this setting: second compound 0.1 µM, first compound 0.0316 µM.
Where [7] appears, read: second compound 0.1 µM, first compound 0.1 µM.
Where [8] appears, read: second compound 0.1 µM, first compound 0.316 µM.
Setting [9] is: second compound 0.1 µM, first compound 1 µM.
[10] abbreviates: second compound 0.1 µM, first compound 3.16 µM.
Where [11] appears, read: second compound 0.1 µM, first compound 10 µM.
The mark [12] stands for this setting: second compound 0.316 µM, first compound 0.0316 µM.
Where [13] appears, read: second compound 0.316 µM, first compound 0.1 µM.
[14] abbreviates: second compound 0.316 µM, first compound 0.316 µM.
The mark [15] stands for this setting: second compound 0.316 µM, first compound 1 µM.
Setting [16] is: second compound 0.316 µM, first compound 3.16 µM.
The mark [17] stands for this setting: second compound 0.316 µM, first compound 10 µM.
Where [18] appears, read: second compound 1 µM, first compound 0.0316 µM.
[19] abbreviates: second compound 1 µM, first compound 0.1 µM.
[20] abbreviates: second compound 1 µM, first compound 0.316 µM.
The mark [21] stands for this setting: second compound 1 µM, first compound 1 µM.
The mark [22] stands for this setting: second compound 1 µM, first compound 3.16 µM.
The mark [23] stands for this setting: second compound 1 µM, first compound 10 µM.
Setting [24] is: second compound 3.16 µM, first compound 0.0316 µM.
The mark [25] stands for this setting: second compound 3.16 µM, first compound 0.1 µM.
Setting [26] is: second compound 3.16 µM, first compound 0.316 µM.
Setting [27] is: second compound 3.16 µM, first compound 1 µM.
Setting [28] is: second compound 3.16 µM, first compound 3.16 µM.
Setting [29] is: second compound 3.16 µM, first compound 10 µM.
[30] abbreviates: second compound 10 µM, first compound 0.0316 µM.
The mark [31] stands for this setting: second compound 10 µM, first compound 0.1 µM.
[32] abbreviates: second compound 10 µM, first compound 0.316 µM.
[33] abbreviates: second compound 10 µM, first compound 1 µM.
The mark [34] stands for this setting: second compound 10 µM, first compound 3.16 µM.
The mark [35] stands for this setting: second compound 10 µM, first compound 10 µM.

For orientation: IC50 means the midpoint of a concentration-inhibition curve. As usually defined, the viability, T/C is the ratio of treated to control.
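Also: spheroids exposed to compounds for seven days.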

As for `CC1(C)CCC(CN2CCN(c3ccc(C(=O)NS(=O)(=O)c4ccc(NCC5CCOCC5)c([N+](=O)[O-])c4)c(Oc4cnc5[nH]ccc5c4)c3)CC2)=C(c2ccc(Cl)cc2)C1` + Cc1ccccc1N=Nc1ccc(NC(=O)c2ccnn2C)c(C)c1, the IC50 is, setting by setting: under setting [1], 4210 nM; under setting [2], 4240 nM; under setting [3], 4140 nM; under setting [4], 3050 nM; under setting [5], 288 nM. The viability, T/C under setting [6] is 107%; the viability, T/C under setting [7] is 85.4%; the viability, T/C under setting [8] was 103%; the viability, T/C under setting [9] is 90.2%; the viability, T/C under setting [10] is 61.4%; the viability, T/C under setting [11] was 16.1%. Moreover, the viability, T/C was 109% under setting [12]; 116% under setting [13]; 102% under setting [14]; 85.1% under setting [15]; 63.7% under setting [16]; 15.8% under setting [17]. In addition, the viability, T/C runs as follows: under setting [18], 97.9%; under setting [19], 97.8%; under setting [20], 94.2%; under setting [21], 86%; under setting [22], 60.4%; under setting [23], 15.5%. Moreover, the viability, T/C is, setting by setting: under setting [24], 93.8%; under setting [25], 83.1%; under setting [26], 83.3%; under setting [27], 73.3%; under setting [28], 48.3%; under setting [29], 14.9%. In addition, the viability, T/C is 46.4% under setting [30]; 53.8% under setting [31]; 53.2% under setting [32]; 44.6% under setting [33]; 40.2% under setting [34]; 15.7% under setting [35].

Regarding `COc1ccc([C@@H](O)c2cc(-c3ncnc4cc(N5CCOCC5)ccc34)c(F)cc2Cl)nn1` + CC(CO)NC(=O)c1cc(-c2ccc(Cl)cc2)nn(-c2cnn(C)c2)c1=O, the IC50 was above 10000 nM under setting [1]; 9460 nM under setting [2]; above 10000 nM under setting [3]; above 10000 nM under setting [4]; 4760 nM under setting [5]. In addition, the viability, T/C is 85.7% under setting [6]; 97.2% under setting [7]; 91.2% under setting [8]; 90.7% under setting [9]; 73.2% under setting [10]; 50.2% under setting [11]. Moreover, the viability, T/C by setting is: under setting [12], 94.1%; under setting [13], 92.1%; under setting [14], 82.8%; under setting [15], 86.3%; under setting [16], 63.6%; under setting [17], 49.5%. Also, the viability, T/C was 103% under setting [18]; 112% under setting [19]; 95.6% under setting [20]; 91.2% under setting [21]; 78% under setting [22]; 51.4% under setting [23]. Moreover, the viability, T/C by setting is: under setting [24], 89.6%; under setting [25], 92.1%; under setting [26], 91.5%; under setting [27], 74.2%; under setting [28], 68.6%; under setting [29], 51.3%. In addition, the viability, T/C was 88.1% under setting [30]; 83.6% under setting [31]; 83.2% under setting [32]; 72.1% under setting [33]; 56.6% under setting [34]; 38.1% under setting [35].

Consider `Nc1ccn(C2OC(CO)C(O)C2(F)F)c(=O)n1` (stereo unspecified), for which the viability, T/C by setting is: (compound 0.0316 µM) 3% and 2.24% and 2.66%; (compound 0.1 µM) 3.22% and 2.41% and 2.65%; (compound 0.316 µM) 3.38% and 3.96% and 3.68%; (compound 1 µM) 3.04% and 4.06% and 3.38%; (compound 3.16 µM) 3.46% and 3.77% and 3.42%; (compound 10 µM) 3.08% and 3.9% and 2.46%. For the setting “curve of compound”, the IC50 is below 31.6 nM.

With `CC1COCCN1c1cc(C2(S(C)(=N)=O)CC2)nc(-c2ccnc3[nH]ccc23)n1` (stereo unspecified) + CC(CO)NC(=O)c1cc(-c2ccc(Cl)cc2)nn(-c2cnn(C)c2)c1=O, the IC50 runs as follows: under setting [1], 1680 nM; under setting [2], 1800 nM; under setting [3], 1550 nM; under setting [4], 1140 nM; under setting [5], 671 nM. Moreover, the viability, T/C was 102% under setting [6]; 96.4% under setting [7]; 87% under setting [8]; 76% under setting [9]; 19.1% under setting [10]; 5.46% under setting [11]. Besides, the viability, T/C is, setting by setting: under setting [12], 95.1%; under setting [13], 102%; under setting [14], 94.2%; under setting [15], 84.4%; under setting [16], 17.1%; under setting [17], 4.07%. For the same compound, the viability, T/C was 100% under setting [18]; 97% under setting [19]; 99% under setting [20]; 70.3% under setting [21]; 16.7% under setting [22]; 5.36% under setting [23]. Also, the viability, T/C by setting is: under setting [24], 89.4%; under setting [25], 83.5%; under setting [26], 82.8%; under setting [27], 55.1%; under setting [28], 11.1%; under setting [29], 4.04%. For the same compound, the viability, T/C under setting [30] was 96.9%; the viability, T/C under setting [31] was 95.3%; the viability, T/C under setting [32] was 72.6%; the viability, T/C under setting [33] was 38.3%; the viability, T/C under setting [34] is 11.3%; the viability, T/C under setting [35] was 4.98%.

For the compound `CC(C)c1c(-c2ccccc2)nc2c(C#N)c[nH]n2c1=O`, the viability, T/C is 93.1% and 105% and 113% (compound 0.0316 µM); 103% and 96.8% and 99.5% (compound 0.1 µM); 107% and 97.7% and 89% (compound 0.316 µM); 95.2% and 98.4% and 113% (compound 1 µM); 96.8% and 100% (2×) (compound 3.16 µM); 90.8% and 92% and 95.9% (compound 10 µM). Also, the IC50 (curve of compound) is above 10000 nM.

Consider `Nc1ccn(C2OC(CO)C(O)C2(F)F)c(=O)n1` (stereo unspecified) + Cc1cncc(-c2nc(NCCc3c[nH]c4ccccc34)c3ncn(C(C)C)c3n2)c1, for which the IC50 under setting [1] is below 31.6 nM; the half-inhibitory concentration (IC50) under setting [2] was below 31.6 nM; the IC50 under setting [3] was below 31.6 nM; the IC50 under setting [4] is below 31.6 nM; the IC50 under setting [5] was below 31.6 nM. Besides, the viability, T/C runs as follows: under setting [6], 3.33%; under setting [7], 4.05%; under setting [8], 4.69%; under setting [9], 4.03%; under setting [10], 3.99%; under setting [11], 4.46%. For the same compound, the viability, T/C runs as follows: under setting [12], 3.3%; under setting [13], 3.9%; under setting [14], 3.76%; under setting [15], 4.54%; under setting [16], 4.43%; under setting [17], 3.99%. The viability, T/C was 3.48% under setting [18]; 3.69% under setting [19]; 3.49% under setting [20]; 4.33% under setting [21]; 3.22% under setting [22]; 3.99% under setting [23]. Further, the viability, T/C by setting is: under setting [24], 5.82%; under setting [25], 4.2%; under setting [26], 4.2%; under setting [27], 4.17%; under setting [28], 4.29%; under setting [29], 3.8%. The viability, T/C was 8.48% under setting [30]; 8.12% under setting [31]; 3.15% under setting [32]; 2.99% under setting [33]; 2.64% under setting [34]; 2.75% under setting [35].

As for `Nc1ncn(C2CC(O)C(CO)O2)c(=O)n1` (stereo unspecified), the viability, T/C (compound 0.00316 µM) is 90.1% and 103% and 107%; the viability, T/C (compound 0.01 µM) is 89.7% and 93.7% and 117%; the viability, T/C (compound 0.0316 µM) was 98.7% and 97.9% and 108%; the viability, T/C (compound 0.1 µM) was 82.1% and 86% and 107%; the viability, T/C (compound 0.316 µM) is 65.7% and 74.5% and 72%; the viability, T/C (compound 1 µM) is 41.9% and 42.8% and 39.9%. Besides, the IC50 (curve of compound) was 670 nM and 776 nM and 697 nM.
